Assays:
Format in all cases: in vivo
TFF-3 = assay: TNBS rat colitis: colonic TFF-3 mRNA by real-time PCR; conditions: colon, oral daily 7 days, mean ± SEM
Method: (§1) Female Wistar rats (180-200 g) were randomly assigned to nine groups (n=10). Three groups received treatment with CaPyr (20, 40 and 100 mg/kg); other three received treatment with ethyl pyruvate (20, 40 and 100 mg/kg); and the remaining was treated with sulphasalazine (30 mg/kg). All compounds were dissolved in 1 ml of carboxymethylcellulose (0.2%) in water solution, and administered daily by oral gavage. An untreated TNBS control group and a non-colitic group were included for reference, which received the vehicle used to administer the test compounds. Colonic inflammation was induced in control and treated groups as generally described (see Galvez et al. 2014). Briefly, rats were fasted overnight, anesthetized with halothane and given TNBS dissolved in 0.25 ml of 50% ethanol (v/v) by means of a Teflon cannula inserted 8 cm through the anus. During and after TNBS administration, the rats were kept in a head-down position until they recovered from anaesthesia, and then returned to their cages. Rats from the non-colitic group were administered intracolonically 0.25 ml of phosphate buffered saline instead of TNBS. The treatments were given from the day of the colitis induction until the sacrifice of the rats with an overdose of halothane, seven days later. Animal body weights, occurrence of diarrhoea, and water and food intake were recorded daily throughout all the experiments. Once the animals were sacrificed, the colon was removed aseptically and placed on an ice-cold plate, longitudinally opened and cleaned from their luminal contents with cold saline. Afterwards, it was weighed and its length measured under a constant load (2 g). Each colon was scored for macroscopically visible damage on a 0-10 scale by two observers unaware of the experiment, according to the criteria described before (see Galvez et al. 2014). Colon samples (0.5 cm^2) containing all the layers were taken from a region of the inflamed colon corresponding to the adjacent segment to the gross macroscopic damage and were fixed in 4% buffered formaldehyde for the histological studies. Equivalent colonic segments were also obtained from the non-colitic group. The colon was subsequently minced, aliquoted and kept frozen at −80° C. until biochemical determinations and RNA extraction was performed.
(§2) Analysis of gene expression in colonic samples by RT-qPCR Total RNA from colonic samples was isolated using Trizol® (Thermo Fisher Scientific Inc., Waltham, Mass. USA) following the manufacturer's protocol. All RNA samples were quantified with the Thermo Scientific NanoDrop™ 2000 Spectrophotometer (Thermo Fisher Scientific Inc., Waltham, Mass. USA) and […] of RNA were reverse transcribed using oligo(dT) primers (Promega, Southampton, UK).
(§3) Real time quantitative PCR amplification and detection was performed on optical-grade 48 well plates in an Eco™ Real-Time PCR System (Illumina, CA, USA) with 20 ng of cDNA, the KAPA SYBR® FAST qPCR Master Mix (Illumina, CA, USA) and specific primers at their annealing temperature (Ta). To normalize mRNA expression, the expression of the housekeeping gene, glyceraldehyde-3-phosphate dehydrogenase (GAPDH) was measured. The mRNA relative quantitation was calculated using the ΔΔCt method.

[1] = system: TNBS experimental rat colitis; assay: TNBS rat colitis: microscopic (histological) damage score; conditions: oral daily 7 days, mean ± SEM
Method: as §1
Cross-sections were selected and embedded in paraffin. Full-thickness sections of 5 μm were obtained at different levels and stained with haematoxylin and eosin. The histological damage was evaluated by a pathologist observer, who was blinded to the experimental groups, according to the criteria previously described by Galvez.

iNOS = assay: TNBS rat colitis: colonic iNOS mRNA by real-time PCR; conditions: colon, oral daily 7 days, mean ± SEM
Method: as §1, §2, §3

MCP-1 = assay: TNBS rat colitis: colonic MCP-1 mRNA by real-time PCR; conditions: colon, oral daily 7 days, mean ± SEM
Method: as §1, §2, §3

[2] = system: TNBS experimental rat colitis; assay: TNBS rat colitis: colonic macroscopic damage score and weight/length ratio; conditions: for Damage Score (0-10) / Weight/length: TNBS rat colitis, oral daily 7 days, mean ± SEM; for Weight/length: colon
Method: as §1

IL-12 = assay: TNBS rat colitis: colonic IL-12 mRNA by real-time PCR; conditions: colon, oral daily 7 days, mean ± SEM
Method: as §1, §2, §3

CINC-1 = assay: TNBS rat colitis: colonic CINC-1 mRNA by real-time PCR; conditions: colon, oral daily 7 days, mean ± SEM
Method: as §1, §2, §3

MUC-2 = assay: TNBS rat colitis: colonic MUC-2 mRNA by real-time PCR; conditions: colon, oral daily 7 days, mean ± SEM
Method: as §1, §2, §3

IL-1β [3] = assay: TNBS rat colitis: colonic IL-1β mRNA by real-time PCR; conditions: colon, oral daily 7 days, mean ± SEM
Method: as §1, §2, §3

IL-6 = assay: TNBS rat colitis: colonic IL-6 mRNA by real-time PCR; conditions: colon, oral daily 7 days, mean ± SEM
Method: as §1, §2, §3

IL-17 = assay: TNBS rat colitis: colonic IL-17 mRNA by real-time PCR; conditions: colon, oral daily 7 days, mean ± SEM
Method: as §1, §2, §3

myeloperoxidase (MPO) = assay: TNBS rat colitis: colonic myeloperoxidase (MPO) activity; conditions: colonic tissue, oral daily 7 days, mean ± SEM
Method: as §1
(§4) Myeloperoxidase (MPO) activity was measured according to the technique described previously (Krawiszet al., 1984); the results were expressed as MPO units per gram of wet tissue; one unit of MPO activity was defined as that degrading 1 μmol hydrogen peroxide/min at 25° C. Total glutathione (GSH) content was quantified with the recycling assay described by Anderson (1985), and the results were expressed as nmol/g wet tissue. In order to evaluate tissue IL-1β levels, the colonic samples were homogenized in phosphate buffered saline supplemented with 0.1% sodium dodecyl sulfate (SDS), 0.1% sodium deoxycholate, 1% Triton X-100 and protease and phosphatase inhibitors (aprotinin, leupeptin and phenylmethylsulfonyl fluoride). The cytokine was quantified by enzyme-linked immunoabsorbent assay (R&D Systems Inc., Minneapolis, Minn., USA) and the results were expressed as pg/g wet tissue.

ICAM-1 = assay: TNBS rat colitis: colonic ICAM-1 mRNA by real-time PCR; conditions: colon, oral daily 7 days, mean ± SEM
Method: as §1, §2, §3

IL-23 = assay: TNBS rat colitis: colonic IL-23 mRNA by real-time PCR; conditions: colon, oral daily 7 days, mean ± SEM
Method: as §1, §2, §3

glutathione (GSH) = assay: TNBS rat colitis: colonic total glutathione (GSH) content; conditions: colonic tissue, oral daily 7 days, mean ± SEM
Method: as §1, §4

IL-1β [4] = assay: TNBS rat colitis: colonic IL-1β by ELISA; conditions: colonic tissue, oral daily 7 days, mean ± SEM
Method: as §1, §4

## CCOC(=O)C(C)=O [EtPyr, ethyl pyruvate]
TFF-3; 20 mg/kg
  TFF-3 mRNA expression: 0.59 ± 0.16 fold increase
TFF-3; 40 mg/kg
  TFF-3 mRNA expression: 1.01 ± 0.05 fold increase
TFF-3; 100 mg/kg
  TFF-3 mRNA expression: 0.96 ± 0.11 fold increase
[1]; 20 mg/kg
  Microscopic Damage Score (0-59): 25 ± 3
[1]; 40 mg/kg
  Microscopic Damage Score (0-59): 17 ± 3
[1]; 100 mg/kg
  Microscopic Damage Score (0-59): 23 ± 3
iNOS; 20 mg/kg
  iNOS mRNA expression: 16.17 ± 2.75 fold increase
iNOS; 40 mg/kg
  iNOS mRNA expression: 12.20 ± 1.53 fold increase
iNOS; 100 mg/kg
  iNOS mRNA expression: 22.88 ± 2.14 fold increase
MCP-1; 20 mg/kg
  MCP-1 mRNA expression: 1.23 ± 0.37 fold increase
MCP-1; 40 mg/kg
  MCP-1 mRNA expression: 1.85 ± 0.29 fold increase
MCP-1; 100 mg/kg
  MCP-1 mRNA expression: 2.21 ± 0.29 fold increase
[2]; 20 mg/kg
  Damage Score (0-10): 6.6 ± 0.6
  Weight/length: 185.4 ± 31.1 mg/cm
[2]; 40 mg/kg
  Damage Score (0-10): 6.1 ± 0.4
  Weight/length: 172.0 ± 15.8 mg/cm
[2]; 100 mg/kg
  Damage Score (0-10): 6.0 ± 0.5
  Weight/length: 186.4 ± 13.2 mg/cm
[2]; rats, 20, 40 and 100 mg/kg body weight, 7 days oral treatment
  effect in TNBS-induced colitis (in words): intestinal anti-inflammatory effects
IL-12; 20 mg/kg
  IL-12 mRNA expression: 1.09 ± 0.13 fold increase
IL-12; 40 mg/kg
  IL-12 mRNA expression: 1.81 ± 0.48 fold increase
IL-12; 100 mg/kg
  IL-12 mRNA expression: 1.62 ± 0.37 fold increase
CINC-1; 20 mg/kg
  CINC-1 mRNA expression: 4.40 ± 0.65 fold increase
CINC-1; 40 mg/kg
  CINC-1 mRNA expression: 4.40 ± 0.57 fold increase
CINC-1; 100 mg/kg
  CINC-1 mRNA expression: 4.40 ± 0.90 fold increase
MUC-2; 20 mg/kg
  MUC-2 mRNA expression: 0.39 ± 0.09 fold increase
MUC-2; 40 mg/kg
  MUC-2 mRNA expression: 0.70 ± 0.08 fold increase
MUC-2; 100 mg/kg
  MUC-2 mRNA expression: 0.50 ± 0.11 fold increase
IL-1β [3]; 20 mg/kg
  IL-1β mRNA expression: 6.90 ± 1.50 fold increase
IL-1β [3]; 40 mg/kg
  IL-1β mRNA expression: 7.20 ± 1.20 fold increase
IL-1β [3]; 100 mg/kg
  IL-1β mRNA expression: 10.21 ± 1.50 fold increase
IL-6; 20 mg/kg
  IL-6 mRNA expression: 5.60 ± 1.41 fold increase
IL-6; 40 mg/kg
  IL-6 mRNA expression: 5.60 ± 1.20 fold increase
IL-6; 100 mg/kg
  IL-6 mRNA expression: 6.00 ± 1.01 fold increase
IL-17; 20 mg/kg
  IL-17 mRNA expression: 1.17 ± 0.27 fold increase
IL-17; 40 mg/kg
  IL-17 mRNA expression: 1.74 ± 0.33 fold increase
IL-17; 100 mg/kg
  IL-17 mRNA expression: 2.34 ± 0.30 fold increase
Myeloperoxidase (MPO); 20 mg/kg
  MPO: 58.1 ± 11.9 mU/g tissue
Myeloperoxidase (MPO); 40 mg/kg
  MPO: 61.5 ± 9.8 mU/g tissue
Myeloperoxidase (MPO); 100 mg/kg
  MPO: 54.7 ± 10.8 mU/g tissue
ICAM-1; 20 mg/kg
  ICAM-1 mRNA expression: 1.39 ± 0.19 fold increase
ICAM-1; 40 mg/kg
  ICAM-1 mRNA expression: 2.27 ± 0.38 fold increase
ICAM-1; 100 mg/kg
  ICAM-1 mRNA expression: 2.39 ± 0.50 fold increase
IL-23; 20 mg/kg
  IL-23 mRNA expression: 1.68 ± 0.39 fold increase
IL-23; 40 mg/kg
  IL-23 mRNA expression: 1.56 ± 0.27 fold increase
IL-23; 100 mg/kg
  IL-23 mRNA expression: 1.80 ± 0.21 fold increase
Glutathione (GSH); 20 mg/kg
  GSH: 560 ± 74 nmol/g tissue
Glutathione (GSH); 40 mg/kg
  GSH: 715 ± 88 nmol/g tissue
Glutathione (GSH); 100 mg/kg
  GSH: 870 ± 124 nmol/g tissue
IL-1β [4]; 20 mg/kg
  IL-1β (ELISA): 975.0 ± 90.1 ng/g tissue
IL-1β [4]; 40 mg/kg
  IL-1β (ELISA): 1140.0 ± 150.1 ng/g tissue
IL-1β [4]; 100 mg/kg
  IL-1β (ELISA): 975.0 ± 211.7 ng/g tissue
